In brackets after ≈: the same amount, converted by molar mass.
Assays:
[1] = cited from earlier work
[2] = Solubility of CORT in water and other solutions; format: physicochemical
Method: The solubility of CORT in various water and other solutions were evaluated over a period of 24 h.

[3] = rat, in vivo; cited from earlier work

Structure (SMILES): CC1(C)O[C@@H]2C[C@H]3[C@@H]4CCC5=CC(=O)C=C[C@]5(C)[C@@]4(F)[C@@H](O)C[C@]3(C)[C@]2(C(=O)CO)O1 [Triamcinolone acetonide]
- water solubility [1]: 20 µg/mL (≈ 46 µM)
- solubility at 24 h ([2]; DMSO:ddH2O 1:4, aqueous with cosolvent or surfactant or cyclodextrin, DMSO:ddH2O ratio of 1:4): ~1000 µg/mL
- solubility at 24 h ([2]; ddH2O and water-based solutions of 2% alginate and 12% acrylamide, 24 h): 10 to 100 µg/mL (≈ 23 to 230 µM)
- solubility ([2]; water 37° C., input of the FE model, read-out: maximum solubility sol(water 37° C.) / Csol): 33 µg/mL (≈ 75.9 µM)
- acute toxicity (oral LD50) [3]: 1451 mg/kg
